{
  "source": "patent US20160058771A1",
  "about": "“ALPHA-2 ADRENOCEPTOR AND SIGMA RECEPTOR LIGAND COMBINATIONS” (LABORATORIOS DEL DR. ESTEVE, S.A., priority 2013, published 2016)",
  "key": {"[1]": {"tested_on": "male Swiss CD-1 mice", "assay": "Hot-plate test (50° C., latency to hind paw licking)", "format": "in vivo", "conditions": "for analgesic effect (latency to hind paw licking): vs control, FIG. 6", "excerpt": "The hot plate is another classical test of acute thermal nociception. This test consists of introducing mice into an open-ended cylindrical space with a floor consisting of a metallic plate that is heated to a constant temperature. Typical behavioural responses in mice are paw-licking and jumping (Le Bars et al., 2001)\nMale Swiss CD-1 mice weighing between 30 and 35 g (Charles River, Barcelona, Spain) were used for all the experiments. The drugs evaluated were the Sigma ligand Compound 63.HCl and the alpha-2 adrenergic agonists clonidine, guanfacine, and dexmedetomidine. Compound 63.HCl was injected intraperitoneally (i.p.) in a volume of 10 ml/kg in 0.5% hydroxypropyl methyl cellulose (HPMC), whereas clonidine, guanfacine and dexmedetomidine were administrated subcutaneously (s.c.) in saline, in a volume of 5 ml/kg. Control animals received the same volume of vehicle. The hot plate test was done 30 min after compound's administration. Mice were placed individually on the hot-plate at 50° C. and the reaction time starting from the placement of the mouse on the hot plate to the time of hind paw licking (HPL) was measured with a stopwatch. An independent untreated group of animals from each strain was used to evaluate the basal latencies and five times those values were chosen as the cut-off time to avoid tissue damage.\nData were expressed as means±S.E.M of the paw withdrawal latency (s).\n(§1) In order to generate dose-response curves, raw data were converted to % maximum possible antinociceptive effect using the following equation:\n(§2) % MPE=[(TL−VL)/(Cut off−VL)]·100\nwhere MPE: maximum possible antinociceptive effect; TL: test latencies and VL: vehicle latency. 3.1. Effect of the Sigma Ligands Compound 63.HCl Alone or Combined with the Alpha-2 Agonist Clonidine"}, "[2]": {"tested_on": "male Swiss CD-1 mice", "assay": "Tail-flick test (radiant heat, acute thermal pain)", "format": "in vivo", "experimental": "Tail-flick test is a classical model of acute thermal pain (D'Amour and Smith, 1941) Pain sensitivity is measured in response to a radiant heat beam focused on the mouse tail. Latency to the first pain response is recorded as a measure of thermal pain sensitivity. The withdrawal is a classic nocifensive reflex that removes the body apart from the source of pain.\nMale Swiss CD-1 mice weighing between 30 and 35 g (Charles River, Barcelona, Spain) were used for all the experiments. The drugs evaluated were compound 63.HCl and clonidine hydrochloride and guanfacine, as alpha-2 adrenergic agonists. Compound 63.HCl was injected intraperitoneally (i.p.) in a volume of 10 ml/kg in 0.5% hydroxypropyl methyl cellulose (HPMC) and clonidine or guanfacine were administered subcutaneously (s.c.) dissolved in isotonic saline (0.9% NaCl) solution, in a volume of 5 ml/kg. Control animals received the same volume of vehicle.\nAntinociception was assessed using the radiant heat tail-flick test as described by Moncada et al., 2003. Briefly, the animals were restrained in a Plexiglas tube and placed on the tail-flick apparatus. The radiant heat source was focused on the proximal portion of the tail at about […] of the tip. Vehicle tail-flick latency (VL) was determined using a stimulus intensity adjusted to elicit a mean reaction time in the range of 2-4 s. Following vehicle or compound administration, test latencies (TL) were obtained at 30 min. A cut off time of 10 s was employed in order to prevent tissue damage. All experiments were performed under blind conditions.\nData were expressed as means±S.E.M of the […] (s.).\nas §1, §2\nwhere MPE: maximum possible antinociceptive effect; TL: test latencies and VL: vehicle latency. 2.1. Effects of the Compound 63.HCl Alone or Combined with the Alpha-2 Agonist Clonidine"}},
  "note": "“Also recorded” adds a separate entry of the source. Structures can show the parent of a compound that is named as a salt.",
  "data": [
    {"smiles": "Clc1cccc(Cl)c1N=C1NCCN1", "note": "[clonidine]", "values": [
      {"measurement": "ED50", "setting": "[1]; Mus musculus, clonidine alone, sc, 0.125-1 mg/kg, FIG. 5, read-out: ED50 (50% effective dose of clonidine)", "result": 0.3, "unit": "mg/kg"},
      {"measurement": "ED50", "setting": "[2]; Mus musculus, clonidine alone, sc, 0.125-1 mg/kg, % MPE dose-response, FIG. 2, read-out: ED50 (50% effective dose of clonidine)", "result": 0.18, "unit": "mg/kg"}
    ]},
    {"smiles": "Cc1cc(OCCN2CCOCC2)nn1-c1ccc2ccccc2c1", "note": "[compound 63.HCl, 4-{2-[5-methyl-1-(naphthalen-2-yl)-1H-pyrazol-3-yloxy]ethyl}morpholine hydrochloride]", "values": [
      {"measurement": "effect on the dose-response curve of clonidine", "setting": "[1]; Compound 63.HCl 40 mg/kg ip with clonidine 0.125-1 mg/kg sc, displacement to the left of the curve, FIG. 5", "result": "potentiated the antinociceptive effect of clonidine"},
      {"measurement": "antinociceptive effect (latency to hind paw licking)", "setting": "[1]; Compound 63.HCl alone 40 mg/kg ip, 30 min before test, FIG. 4, FIG. 5, hydrochloride", "result": "failed to produce a statistically significant antinociceptive effect; also recorded: showed no activity"},
      {"measurement": "effect on the dose-response curve of clonidine", "setting": "[2]; compound 63.HCl 40 mg/kg ip with clonidine 0.125-1 mg/kg sc, displacement to the left of the curve, FIG. 2", "result": "potentiates the antinociceptive effect of clonidine"},
      {"measurement": "antinociceptive effect (tail withdrawal latency)", "setting": "[2]; compound 63.HCl alone, 5, 10 and 40 mg/kg ip, 30 min before test, vs vehicle, FIG. 1", "result": "failed to produce a statistically significant antinociceptive effect"}
    ]},
    {"smiles": "Cc1cccc([C@H](C)c2cnc[nH]2)c1C", "note": "[dexmedetomidine]", "values": [
      {"measurement": "analgesic effect (latency to hind paw licking)", "setting": "[1]; dexmedetomidine alone 0.01 mg/kg s.c.", "result": "not effective compared to control group"}
    ]},
    {"smiles": "N=C(N)NC(=O)Cc1c(Cl)cccc1Cl", "note": "[guanfacine]", "values": [
      {"measurement": "analgesic effect (latency to hind paw licking)", "setting": "[1]; guanfacine alone 5 mg/kg s.c.", "result": "not effective compared to control group"},
      {"measurement": "analgesic effect (tail withdrawal latency)", "setting": "[2]; guanfacine alone 1.25 mg/kg s.c., vs vehicle, FIG. 3", "result": "not effective compared to vehicle"}
    ]}
  ]
}
